According to US12398154B2, “Azaquinazoline pan-KRas inhibitors” (Mirati Therapeutics, Inc., priority 2020, dated 2025):

How the values were obtained:
KRas G12D = KRas G12D (Homo sapiens, UniProt P01116, G12D); test: biochemical;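 further: TR-FRET displacement binding assay on KRas, read after a one-hour incubation at room temperature, IC50 fitted from percent-of-control values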
Description: (§5) The ability of a compound to bind to KRas was measured using a TR-FRET displacement assay. […] After a 60-minute incubation at room temperature, the reaction was measured using a BMG LABTECH CLARIO star Plus via TR-FRET. […] The POC values were fit to a 4-parameter IC50 equation and the IC50 value reported.

KRas G12R = KRas G12R (Homo sapiens, UniProt P01116, G12R); test: biochemical;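 further: TR-FRET displacement assay of compound binding to KRas, read after one hour at room temperature, potency from a four-parameter fit of percent-of-control values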
KRas G12R, sequence (P01116 1-169 isoform P01116-2 G12R): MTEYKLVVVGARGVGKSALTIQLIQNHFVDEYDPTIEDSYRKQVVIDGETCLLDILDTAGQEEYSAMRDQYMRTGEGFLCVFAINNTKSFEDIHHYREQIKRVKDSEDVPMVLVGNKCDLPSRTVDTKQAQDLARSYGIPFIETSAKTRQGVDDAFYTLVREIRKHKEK
Description: as §5

pERK in MKN1 cells = test: Inhibition of KRas phosphorylation of ERK (Cisbio HTRF pERK assay); conditions: Homo sapiens, MKN-1, 3 h, read-out: Inhibition (HTRF IC50) of KRas-mediated Phosphorylation of ERK, MKN1
KRas G12V = KRas G12V (Homo sapiens, UniProt P01116, G12V); test: biochemical;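 further: KRas binding measured by TR-FRET displacement at room temperature, IC50 fitted from percent of control values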
KRas G12V, sequence (P01116 1-169 isoform P01116-2 G12V): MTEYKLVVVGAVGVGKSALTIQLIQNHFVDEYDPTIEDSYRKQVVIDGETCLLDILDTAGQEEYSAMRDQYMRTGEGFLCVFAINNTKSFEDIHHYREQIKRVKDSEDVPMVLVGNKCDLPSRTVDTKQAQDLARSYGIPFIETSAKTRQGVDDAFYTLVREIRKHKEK
Description: as §5

pERK in PSN1 cells = test: Inhibition of KRas phosphorylation of ERK (Cisbio HTRF pERK assay); conditions: Homo sapiens, PSN1, 3 h, read-out: Inhibition (HTRF IC50) of KRas-mediated Phosphorylation of ERK, PSN1
[1] = test system: phospho-ERK in NCI-H727 (G12V) cells; test: Inhibition of KRas-mediated phosphorylation of ERK (in-cell western); format: cell-based; conditions: Homo sapiens, NCI-H727, 3 h, 3 hours compound, phospho-ERK normalized to GAPDH
Description: (§1) Diluted compounds were then added in a final concentration of 0.5% DMSO. After 3 hours, 50 μL of 4.0% formaldehyde was added and the plates incubated at room temperature for 20 minutes. The plates were then dumped and permeabilized with 150 μL of ice cold 100% methanol for 10 minutes.
(§2) The amount of phospho-ERK was determined using an antibody specific for the phosphorylated form of ERK and compared to the amount of GAPDH. […] The plates were incubated overnight at 4° C. The plates were washed 3× with 150 uL PBS+0.1% Tween 20.
(§3) The plates were washed 3× with 150 uL PBS+0.1% Tween 20. Plates were imaged dry on a Li-COR Odyssey CLX plate reader.
(§4) The phospho-ERK (Thr202/Tyr204) signal was normalized to the GAPDH signal for each well and percent of DMSO control values were calculated. IC50 values were generated using a 4-parameter fit of the dose response curve.

[2] = test system: phospho-ERK in NCI-H460 (Q61H) cells; test: as above; format: cell-based; conditions: Homo sapiens, NCI-H460, 3 h, 3 hours compound, phospho-ERK normalized to GAPDH
Description: as §1, §2, §3, §4

[3] = test system: phospho-ERK in AsPC-1 (G12D) cells; test: as above; format: cell-based; conditions: Homo sapiens, ASPC1, 3 h, 3 hours compound, phospho-ERK normalized to GAPDH
Description: as §1, §2, §3, §4

KRas G12C = KRas G12C (Homo sapiens, UniProt P01116, G12C); test: biochemical;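 further: binding to KRas assessed by TR-FRET displacement after one hour incubation at room temperature, potency fitted from percent-of-control values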
KRas G12C, sequence (P01116 1-169 isoform P01116-2 G12C): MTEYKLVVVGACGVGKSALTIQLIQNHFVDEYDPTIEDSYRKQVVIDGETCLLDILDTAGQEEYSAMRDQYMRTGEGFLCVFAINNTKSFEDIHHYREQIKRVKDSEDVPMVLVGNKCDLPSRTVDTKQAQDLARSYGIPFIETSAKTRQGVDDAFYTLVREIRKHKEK
Description: as §5

KRas WT = KRas WT (Homo sapiens, UniProt P01116); test: biochemical;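 further: binding to KRas read as TR-FRET displacement after a one-hour room-temperature incubation, IC50 derived from percent-of-control values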
KRas WT, sequence (P01116 1-169 isoform P01116-2): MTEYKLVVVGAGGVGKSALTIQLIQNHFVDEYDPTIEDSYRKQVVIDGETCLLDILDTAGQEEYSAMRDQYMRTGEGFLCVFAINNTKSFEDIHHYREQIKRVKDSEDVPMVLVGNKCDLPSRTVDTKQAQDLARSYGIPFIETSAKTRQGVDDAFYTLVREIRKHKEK
Description: as §5

KRas G12S = KRas G12S (Homo sapiens, UniProt P01116, G12S); test: biochemical;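 further: TR-FRET displacement binding to KRas, read after one hour incubation at room temperature, IC50 from four-parameter fit of percent of control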
KRas G12S, sequence (P01116 1-169 isoform P01116-2 G12S): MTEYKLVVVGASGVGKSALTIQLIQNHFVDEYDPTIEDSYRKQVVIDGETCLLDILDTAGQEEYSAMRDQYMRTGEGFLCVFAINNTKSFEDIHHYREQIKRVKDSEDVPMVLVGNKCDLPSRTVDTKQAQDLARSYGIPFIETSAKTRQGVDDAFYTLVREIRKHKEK
Description: as §5

KRas G12A = KRas G12A (Homo sapiens, UniProt P01116, G12A); test: biochemical;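 further: binding to KRas measured by TR-FRET displacement after one hour at room temperature, IC50 from a four-parameter fit of percent-of-control values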
KRas G12A, sequence (P01116 1-169 isoform P01116-2 G12A): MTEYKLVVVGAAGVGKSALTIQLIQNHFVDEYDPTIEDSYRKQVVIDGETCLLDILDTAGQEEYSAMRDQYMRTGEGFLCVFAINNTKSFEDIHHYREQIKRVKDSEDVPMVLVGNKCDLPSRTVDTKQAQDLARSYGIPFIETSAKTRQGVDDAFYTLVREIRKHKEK
Description: as §5

KRas G12D, sequence (P01116 1-169 isoform P01116-2 G12D): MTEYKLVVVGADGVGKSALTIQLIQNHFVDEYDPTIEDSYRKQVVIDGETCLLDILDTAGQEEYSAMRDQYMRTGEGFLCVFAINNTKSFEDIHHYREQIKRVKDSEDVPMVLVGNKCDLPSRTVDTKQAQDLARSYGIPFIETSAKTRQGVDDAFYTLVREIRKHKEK

Row | Structure (SMILES) | IC50 (KRas G12D) | IC50 (KRas G12R) | IC50 (pERK in MKN1 cells) | IC50 (KRas G12V) | IC50 (pERK in PSN1 cells) | IC50 [1] | IC50 [2] | IC50 [3] | IC50 (KRas G12C) | IC50 (KRas WT) | IC50 (KRas G12S) | IC50 (KRas G12A)
1 | CCc1c(F)ccc2cc(O)cc(-c3ncc4c(N5CC[C@@H](C)[C@@H](O)C5)nc(OC[C@@]56CCCN5C[C@H](F)C6)nc4c3F)c12 [Example 189] | 32 nM | 18 nM | 29 nM | 18 nM | 5.54 µM | 1430 nM | 377 nM | 1240 nM |  |  |  | 
2 | CCc1c(F)ccc2cc(O)cc(-c3ncc4c(N5CCC(F)(F)C(O)C5)nc(OC[C@@]56CCCN5C[C@H](F)C6)nc4c3F)c12 (stereo partly drawn) [Example 191] | 9 nM | 4 nM | 15 nM | 4 nM | 5.85 µM | 714 nM | 230 nM | 665 nM |  |  |  | 
3 | CCc1c(F)ccc2cc(O)cc(-c3ncc4c(N5C[C@H](O)C[C@H](F)C5)nc(OC[C@@]56CCCN5C[C@H](F)C6)nc4c3F)c12 [Example 192] | ≤ 2 nM | ≤ 2 nM | 4 nM | ≤ 2 nM | 7.34 µM | 191 nM | 51 nM | 90 nM |  |  |  | 
4 | CCc1c(F)ccc2cc(O)cc(-c3ncc4c(NCCCc5cccnc5)nc(OC[C@@]56CCCN5C[C@H](F)C6)nc4c3F)c12 [Example 198, 5-ethyl-6-fluoro-4-(8-fluoro-2-(((2R,7aS)-2-fluorohexahydro-1H-pyrrolizin-7a-yl)methoxy)-4-((3-(pyridin-3-yl)propyl)amino)pyrido[4,3-d]pyrimidin-7-yl)naphthalen-2-ol] | 86 nM | 8 nM | 183 nM | 9 nM | ≥ 10 µM | 1750 nM | 803 nM | 2690 nM |  |  |  | 
5 | CCc1c(F)ccc2cc(O)cc(-c3ncc4c(NCc5ccc(=O)n(C)c5)nc(OC[C@@]56CCCN5C[C@H](F)C6)nc4c3F)c12 [Example 199] | 3 nM | ≤ 2 nM | 7 nM | ≤ 2 nM | ≥ 10 µM | 798 nM | 314 nM | 1320 nM |  |  |  | 
6 | NS(=O)(=O)CC1CCCN(c2nc(OC[C@@]34CCCN3C[C@H](F)C4)nc3c(F)c(-c4cc(O)cc5ccc(F)c(F)c45)ncc23)C1 (stereo partly drawn) [Example 203] | ≤ 2 nM | ≤ 2 nM | 35 nM | ≤ 2 nM | 3.71 µM | 1270 nM | 758 nM | 8010 nM |  |  |  | 
7 | CCc1c(F)ccc2cc(O)cc(-c3ncc4c(N5CCC[C@]6(CNC(=O)C6)C5)nc(OC[C@]56CCCN5C[C@@H](O)C6)nc4c3F)c12 [Example 206] | ≤ 2 nM | ≤ 2 nM | 34 nM | ≤ 2 nM | ≥ 10 µM | 3330 nM | 3380 nM | 6960 nM |  |  |  | 
8 | CCc1c(F)ccc2cc(O)cc(-c3ncc4c(Nc5cnn(-c6ccncc6)c5)nc(OC[C@@]56CCCN5C[C@H](F)C6)nc4c3F)c12 [Example 297, 5-ethyl-6-fluoro-4-(8-fluoro-2-(((2R,7aS)-2-fluorohexahydro-1H-pyrrolizin-7a-yl)methoxy)-4-((1-(pyridin-4-yl)-1H-pyrazol-4-yl)amino)pyrido[4,3-d]pyrimidin-7-yl)naphthalen-2-ol] | 54 nM | 9 nM | 154 nM | ≤ 2 nM | ≥ 10 µM | 450 nM | 660 nM | 3430 nM |  |  |  | 
9 | CCc1c(F)ccc2cc(O)cc(-c3ncc4c(N5CCC[C@@](C)(O)C5)nc(OC[C@]56CCCN5[C@@H](CO)CC6)nc4c3F)c12 [Example 303, (R)-1-(7-(8-ethyl-7-fluoro-3-hydroxynaphthalen-1-yl)-8-fluoro-2-(((3R,7aR)-3-(hydroxymethyl)hexahydro-1H-pyrrolizin-7a-yl)methoxy)pyrido[4,3-d]pyrimidin-4-yl)-3-methylpiperidin-3-ol] | ≤ 2 nM | ≤ 2 nM | 358 nM | ≤ 2 nM | ≥ 10 µM | 3690 nM | 4120 nM | 3290 nM |  |  |  | 
10 | CCc1c(F)ccc2cc(O)cc(-c3ncc4c(N5CCC[C@@](C)(O)C5)nc(OC[C@@]56CCCN5[C@H](CO)CC6)nc4c3F)c12 [Example 304, (R)-1-(7-(8-ethyl-7-fluoro-3-hydroxynaphthalen-1-yl)-8-fluoro-2-(((3S,7aS)-3-(hydroxymethyl)hexahydro-1H-pyrrolizin-7a-yl)methoxy)pyrido[4,3-d]pyrimidin-4-yl)-3-methylpiperidin-3-ol] | ≤ 2 nM | ≤ 2 nM | 29 nM | ≤ 2 nM | ≥ 10 µM | 2580 nM | 804 nM | 1370 nM |  |  |  | 
11 | CCc1c(F)ccc2cc(O)cc(-c3ncc4c(N5CCC[C@@](C)(O)C5)nc(OC[C@@]56CCCN5C[C@H](O)C6)nc4c3F)c12 [Example 311, (2R,7aS)-7a-(((7-(8-ethyl-7-fluoro-3-hydroxynaphthalen-1-yl)-8-fluoro-4-((R)-3-hydroxy-3-methylpiperidin-1-yl)pyrido[4,3-d]pyrimidin-2-yl)oxy)methyl)hexahydro-1H-pyrrolizin-2-ol] | ≤ 2 nM | ≤ 2 nM | 15 nM | ≤ 2 nM | ≥ 10 µM | 2600 nM | 501 nM | 738 nM |  |  |  | 
12 | O=C1NCC2(CCCN(c3nc(OC[C@@]45CCCN4C[C@H](F)C5)nc4c(F)c(-c5cc(O)cc6ccc(F)c(F)c56)ncc34)C2)N1 (stereo partly drawn) [Example 445, 7-(7-(7,8-difluoro-3-hydroxynaphthalen-1-yl)-8-fluoro-2-(((2R,7aS)-2-fluorohexahydro-1H-pyrrolizin-7a-yl)methoxy)pyrido[4,3-d]pyrimidin-4-yl)-1,3,7-triazaspiro[4.5]decan-2-one] | 4 nM | ≤ 2 nM | 8200 nM | ≤ 2 nM | ≥ 10 µM | 2930 nM | 1190 nM | 1620 nM |  |  |  | 
13 | O=C1CC2(CCCN(c3nc(OC[C@@]45CCCN4C[C@H](F)C5)nc4c(F)c(-c5cc(O)cc6ccc(F)c(F)c56)ncc34)C2)CN1 (stereo partly drawn) [Example 446, 7-(7-(7,8-difluoro-3-hydroxynaphthalen-1-yl)-8-fluoro-2-(((2R,7aS)-2-fluorohexahydro-1H-pyrrolizin-7a-yl)methoxy)pyrido[4,3-d]pyrimidin-4-yl)-2,7-diazaspiro[4.5]decan-3-one] | 4 nM | 4 nM | 786 nM | ≤ 2 nM | ≥ 10 µM | 2500 nM | 2190 nM | 3670 nM |  |  |  | 
14 | Cc1cc(N)nc(-c2ncc3c(N4CCCC(C)(O)C4)nc(OC[C@@]45CCCN4C[C@H](F)C5)nc3c2F)c1C(F)(F)F (stereo partly drawn) [Example 459, 1-(7-(6-amino-4-methyl-3-(trifluoromethyl)pyridin-2-yl)-8-fluoro-2-(((2R,7aS)-2-fluorohexahydro-1H-pyrrolizin-7a-yl)methoxy)pyrido[4,3-d]pyrimidin-4-yl)-3-methylpiperidin-3-ol] | 537 nM | 1010 nM |  | 766 nM |  | ≥ 10000 nM | ≥ 10000 nM | 9940 nM | 822 nM | 688 nM | 821 nM | 815 nM
